pIC50: −log10 of the molar value. Where “and” joins values, the source holds several entries; their conditions need not be identical. Equal values may be shown once.
System: 885724-159-R-J1-PDC complex spheroid viability
Test: Anticancer human tumor 885724-159-R-J1-PDC patient-derived pancreatic adenocarcinoma cell line growth inhibition [GQUAD]
Conditions: for viability, T/C: stronger effect = lower value
Text: DNA G-quadruplex Stabilizer Agents in Combinations in Complex Spheroids
A high-throughput screen of multi-cell type tumor spheroids was designed to identify active combinations of DNA G-quadruplex stabilizer agents and targeted small molecules. Complex spheroids include a stromal component modeled by human endothelial cells (HUVEC) and fibroblasts modeled by human mesenchymal stem cells (MSCs). The concentration ranges selected for each drug and investigational agent were based upon clinically achievable concentrations if the clinical Cmax of the agent was known.
Compounds. The drugs and investigational agents: pidnarulex (CX-5461; NSC782164), APTO-253 (NSC789042), BRACO-19 (NSC847499), peposertib (NSC802822), ceralasertib (NSC780249), elimusertib (NSC800525), camonsertib (NSC841442), AZD-1390 (NSC803789), olaparib (NSC753686), talazoparib (NSC767125), ART-558 (NSC835418), sotorasib (NSC818433), MRTX-1133 (NSC836407), SN-38 (NSC673596), topotecan (NSC609699), etoposide (NSC141540), doxorubicin (NSC123127), gemcitabine (NSC613327), 5-fluorouracil (NSC19893), paclitaxel (NSC125973), vemurafenib (NSC761431), panobinostat (NSC761190), R-306465 (JNJ-16241199; NSC773264), adavosertib (NSC754352), TP-3654 (NSC805149), carboplatin (NSC241240), KSQ-4279 (NSC840948), and staurosporine (NSC755774) were obtained from the National Cancer Institute (NCI) Developmental Therapeutics Program Chemical Repository (34). The FDA-approved anticancer drug set is available from the NCI Developmental Therapeutics Program. […] The stock solutions were prepared in dimethyl sulfoxide (DMSO, Sigma-Aldrich, St. Louis, MO, cat. D2650) at 800-fold the tested concentration and stored at -70 degrees C prior to their use. All drugs and investigational agents were tested over a range starting from a high concentration at or near the clinical Cmax and decreasing in half-log increments. If the clinical Cmax for an agent had not been determined, the highest concentration tested was 10 microM.
2.3 Cell Culture. All cells were maintained in an incubator at 37 degrees C and 5% CO2 with 95% humidity. The PDC lines were cultured according to standard operating procedures established by the NCI PDMR. All PDCs were thawed and cultured in Matrigel-coated flasks prepared with a working solution of 1X Ham's F-12 nutrient mix, without supplementation (Invitrogen, cat. 11765054), 100 U/mL penicillin-streptomycin (Invitrogen, cat. 15140122), and 2.5% Matrigel (Corning Inc., cat. 354248) for the first three passages. The 857933-349-R-J2-PDC line was cultured in 6C/Colon 1B media, which includes advanced DMEM/F-12 (Thermo Fisher Scientific, cat. 12634028), 10 mM HEPES (Thermo Fisher Scientific, cat. 15630080), 1X GlutaMAX supplement (Thermo Fisher Scientific, cat. 35050061), 0.1 mg/mL primocin (InvivoGen, cat. ant-pm-2), 10% defined fetal bovine serum, heat inactivated (HyClone Laboratories Inc., cat. SH30070.03HI), 50% L-WRN conditioned media (ATCC, cat. CRL-3276), 1.25 mM N-Acetyl-L-cysteine (Sigma-Aldrich, cat. A9165), 10 mM nicotinamide (Sigma-Aldrich, cat. N0636), 1X B-27 supplement (Thermo Fisher Scientific, cat. 17504044), 1X N-2 supplement (Thermo Fisher Scientific, cat. 17502048), 10 microM Y-27632 dihydrochloride (Tocris Bioscience, cat. 1254), and 50 ng/mL human EGF recombinant protein (Thermo Fisher Scientific, cat. PHG0311). The 485176-168-R4-J1-PDC line was cultured in Panc media, which includes all 6C/Colon 1B media components plus 100 ng/mL human FGF-10 (Thermo Fisher Scientific, cat. 100-26), 500 nM SB-431542 (Selleckchem, cat. S1067), and gastrin (Tocris, cat. 3006).
[…]
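Also: spheroids exposed to agents for seven days before readout.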
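For viability, T/C in this document: percent of vehicle control viability where 100% = DMSO wells.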

Nc1ccn(C2OC(CO)C(O)C2(F)F)c(=O)n1 (configuration not stated)
viability, T/C (compound 0.0316 µM): 94.4% and 88% and 85.7% | viability, T/C (compound 0.1 µM): 93.7% and 90.3% and 81.5% | viability, T/C (compound 0.316 µM): 74.7% and 78.5% and 86.1% | viability, T/C (compound 1 µM): 73.9% and 75.2% and 79.9% | viability, T/C (compound 3.16 µM): 80.9% and 58.4% and 67% | viability, T/C (compound 10 µM): 69% and 61% and 68.9% | pIC50 (curve of compound): < 5.00

O=C(c1cc(Cc2n[nH]c(=O)c3ccccc23)ccc1F)N1CCN(C(=O)C2CC2)CC1
viability, T/C (compound 0.0316 µM): 99.2% and 89.1% and 108% | viability, T/C (compound 0.1 µM): 101% and 98.7% and 92.9% | viability, T/C (compound 0.316 µM): 95.6% and 92.5% and 106% | viability, T/C (compound 1 µM): 87% and 108% and 83.3% | viability, T/C (compound 3.16 µM): 90.5% and 89.9% and 99.1% | viability, T/C (compound 10 µM): 97.6% and 90.9% and 82.7% | pIC50 (curve of compound): < 5.00

O=C(NO)c1cnc(N2CCN(S(=O)(=O)c3ccc4ccccc4c3)CC2)nc1
viability, T/C (compound 0.0316 µM): 90.6% and 97.6% and 84% | viability, T/C (compound 0.1 µM): 98.7% and 96.6% and 80% | viability, T/C (compound 0.316 µM): 94.2% and 85.3% and 72% | viability, T/C (compound 1 µM): 43.3% and 36.8% and 41.2% | viability, T/C (compound 3.16 µM): 1.62% and 0.69% and 11.8% | viability, T/C (compound 10 µM): 0.25% and 0.51% and 0.27% | pIC50 (curve of compound): 6.07 and 6.14

Cc1cccc(N(C)C(=O)C2C(O)CCN2c2nc(C)cc(C(F)(F)F)c2C#N)c1 (configuration not stated) + CN(C)c1ccc(Nc2c3ccc(NC(=O)CCN4CCCC4)cc3nc3cc(NC(=O)CCN4CCCC4)ccc23)cc1
pIC50 (curve of first compound, second compound 0.0316 µM): < 5.00 | pIC50 (curve of first compound, second compound 0.1 µM): < 5.00 | pIC50 (curve of first compound, second compound 0.316 µM): < 5.00 | pIC50 (curve of first compound, second compound 1 µM): < 5.00 | pIC50 (curve of first compound, second compound 3.16 µM): < 5.00 | pIC50 (curve of first compound, second compound 10 µM): < 5.00 | viability, T/C (second compound 0.0316 µM, first compound 0.0316 µM): 95.6% | viability, T/C (second compound 0.0316 µM, first compound 0.1 µM): 98% | viability, T/C (second compound 0.0316 µM, first compound 0.316 µM): 105% | viability, T/C (second compound 0.0316 µM, first compound 1 µM): 92.7% | viability, T/C (second compound 0.0316 µM, first compound 3.16 µM): 108% | viability, T/C (second compound 0.0316 µM, first compound 10 µM): 97.7% | viability, T/C (second compound 0.1 µM, first compound 0.0316 µM): 90.3% | viability, T/C (second compound 0.1 µM, first compound 0.1 µM): 103% | viability, T/C (second compound 0.1 µM, first compound 0.316 µM): 104% | viability, T/C (second compound 0.1 µM, first compound 1 µM): 90.4% | viability, T/C (second compound 0.1 µM, first compound 3.16 µM): 90% | viability, T/C (second compound 0.1 µM, first compound 10 µM): 101% | viability, T/C (second compound 0.316 µM, first compound 0.0316 µM): 108% | viability, T/C (second compound 0.316 µM, first compound 0.1 µM): 86.2% | viability, T/C (second compound 0.316 µM, first compound 0.316 µM): 88.3% | viability, T/C (second compound 0.316 µM, first compound 1 µM): 87.1% | viability, T/C (second compound 0.316 µM, first compound 3.16 µM): 100% | viability, T/C (second compound 0.316 µM, first compound 10 µM): 102% | viability, T/C (second compound 1 µM, first compound 0.0316 µM): 86% | viability, T/C (second compound 1 µM, first compound 0.1 µM): 80.5% | viability, T/C (second compound 1 µM, first compound 0.316 µM): 83.3% | viability, T/C (second compound 1 µM, first compound 1 µM): 82.4% | viability, T/C (second compound 1 µM, first compound 3.16 µM): 89.7% | viability, T/C (second compound 1 µM, first compound 10 µM): 83% | viability, T/C (second compound 3.16 µM, first compound 0.0316 µM): 79.8% | viability, T/C (second compound 3.16 µM, first compound 0.1 µM): 68.8% | viability, T/C (second compound 3.16 µM, first compound 0.316 µM): 92.3% | viability, T/C (second compound 3.16 µM, first compound 1 µM): 81% | viability, T/C (second compound 3.16 µM, first compound 3.16 µM): 86.1% | viability, T/C (second compound 3.16 µM, first compound 10 µM): 86.5% | viability, T/C (second compound 10 µM, first compound 0.0316 µM): 77% | viability, T/C (second compound 10 µM, first compound 0.1 µM): 79.3% | viability, T/C (second compound 10 µM, first compound 0.316 µM): 75.6% | viability, T/C (second compound 10 µM, first compound 1 µM): 80.2% | viability, T/C (second compound 10 µM, first compound 3.16 µM): 78.2% | viability, T/C (second compound 10 µM, first compound 10 µM): 56.5%

COc1cccc2c1C(=O)c1c(O)c3c(c(O)c1C2=O)CC(O)(C(=O)CO)CC3OC1CC(N)C(O)C(C)O1 (configuration not stated)
viability, T/C (compound 0.0316 µM): 92.3% and 103% and 104% | viability, T/C (compound 0.1 µM): 92.3% and 81.3% and 102% | viability, T/C (compound 0.316 µM): 80.3% and 79.5% and 78.9% | viability, T/C (compound 1 µM): 84.3% and 81.4% and 81.6% | viability, T/C (compound 3.16 µM): 38.4% and 40.1% and 34.5% | viability, T/C (compound 10 µM): 4.02% and 1.94% and 3.83% | pIC50 (curve of compound): 5.63 and 5.62 and 5.67

CC(C)(O)C1CCC(Nc2ccc3ncc(-c4cccc(C(F)(F)F)c4)n3n2)CC1 (configuration not stated)
viability, T/C (compound 0.0316 µM): 110% and 93.1% and 96.4% | viability, T/C (compound 0.1 µM): 95% and 90.9% and 102% | viability, T/C (compound 0.316 µM): 85.7% and 91.3% and 93.8% | viability, T/C (compound 1 µM): 75.3% and 74.9% and 73.6% | viability, T/C (compound 3.16 µM): 45.3% and 41.7% and 38.7% | viability, T/C (compound 10 µM): 46% and 47.1% and 39.8% | pIC50 (curve of compound): 5.35 and 5.59 and 5.65

From PubChem BioAssay AID2060502 (Molecular Pharmacology Branch, DTP, NCI, 2025)
